From patent US9682028B2, “Personal care photoprotective compositions with tricyclodecane amides” (Conopco, Inc., priority 2013, dated 2017)
Where two headings read alike, the source gives them in different places.

How the values were obtained:
human sebocytes = test: Sebocyte assay (sebum suppression, 14C-acetate incorporation); type: cell-based; conditions: for inhibition at 10 µM: read-out: % Reduction at 10 microMolar; for inhibition at 100 µM: read-out: % Reduction at 100 microMolar
Experimental: Sebum suppression effect of the tricyclodecane amides suitable for use in the present invention was investigated.
Secondary cultures of human sebocytes obtained from an adult […] were grown in 96-well tissue culture plates (Packard) until three days post-confluence. Sebocyte growth medium consisted of Clonetics Keratinocyte Basal Medium (KBM) supplemented with 14 μg/ml bovine pituitary extract, 0.4 μg/ml hydrocortisone, 5 μg/ml insulin, 10 ng/ml epidermal growth factor, 1.2×10^−10 M cholera toxin, 100 units/ml penicillin, and 100 μg/ml streptomycin. All cultures were incubated at 37° C. in the presence of 5% CO2. Medium was changed three times per week.
On the day of experimentation, the growth medium was removed and the sebocytes washed three times with sterile Dulbecco's Modified Eagle Medium (DMEM; phenol red free). Fresh DMEM was added to each sample (triplicates) with 5-microliters of test agent solubilized in ethanol. Controls consisted of addition ethanol alone. Each plate was returned to the incubator for 20-hours followed by the addition of ^14C-acetate buffer (5 mM final concentration, 56 mCi/mmol specific activity). Sebocytes were returned to the incubator for 4-hours after which each culture was rinsed 3-times with phosphate buffered saline to remove unbound label. Radioactive label remaining in the sebocytes was determined using a Packard Microbeta, scintillation counter. Phenol Red, a known sebum suppressive agent, was employed as a positive control.

[1] = In vitro SPF evaluation (Optometric 290S SPF meter, PMMA plate); type: physicochemical; conditions: summary of Table 2
Experimental: SPF, UV-A, and UV-B improvement of compositions within the scope of the invention was investigated.
In vitro SPF measurement was done using the Optometric 290S SPF meter. The product was applied at a dosage of 2 mg/cm^2 on PMMA (polymethylmethacrylate) plate (7 cm×7 cm) and allowed to air dry for 30 minutes. The average SPF value was obtained from 6 SPF readings per plate. Two duplicated runs, the standard deviation from the average was ±2 SPF units. % increase of in vitro SPF versus control calculation: (measured SPF for selected formulation−measured SPF of control)/measured SPF of control×100.

[2] = In vitro MPF evaluation (monochromatic protection factor); type: physicochemical; conditions: summary of Table 4
Experimental: MPF=monochromatic protection factor=1/Transmittance at a specific wavelength (lower transmittance gives higher MPF therefore higher absorption for the sunscreen). 305 nm=UVB, 360 nm=UVA. MPF was measured using the same apparatus as SPF above. MPF % increase over control (measured MPF at 305 nm and 360 nm for selected formulation−measured MPF at 305 nm and 360 nm of control)/measured MPF at 305 nm and 360 nm of control×100.

[3] = 10 microMolar test agent, 20 h incubation then 4 h 14C-acetate, radioactive label remaining in sebocytes
[4] = 100 microMolar test agent, 20 h incubation then 4 h 14C-acetate, radioactive label remaining in sebocytes

| SMILES | inhibition at 10 µM (human sebocytes; [3]) | inhibition at 100 µM (human sebocytes; [4]) | also measured |
| --- | --- | --- | --- |
| O=C(N1CCOCC1)C12CC3CC(CC(C3)C1)C2 [Compound C1, Methanone, (morphonyl)tricyclo[3.3.1.1^3,7]dec-1-yl-] | 35.4% | 78.5% |  |
| O=C(N1CCCCC1)C12CC3CC(CC(C3)C1)C2 [Compound C2, Methanone, (piperidiny)tricyclo[3.3.1.1^3,7]dec-1-yl-] | 34.3% | 51.6% |  |
| O=C(N1CCC1)C12CC3CC(CC(C3)C1)C2 [Compound C4, Methanone, (azetidinyl)tricyclo[3.3.1.1^3,7]dec-1-yl-] |  |  | inhibition at 10 µM (human sebocytes): 16.3%; inhibition at 100 µM (human sebocytes): 27.9% |
| O=C(N1CCCCCC1)C12CC3CC(CC(C3)C1)C2 [Compound C5, Methanone, (hexahydroazepinyl)tricyclo[3.3.1.1^3,7]dec-1-yl-] | 32.4% | 50.5% |  |
| N#CC1CCN(C(=O)C23CC4CC(CC(C4)C2)C3)CC1 [Compound C6, Methanone, (4-cyano-piperidinyl)tricyclo[3.3.1.1^3,7]dec-1-yl] | 24.8% | 39.4% |  |
| NC(=O)C1CCN(C(=O)C23CC4CC(CC(C4)C2)C3)CC1 [Compound C7, Methanone, (4-amido-piperidinyl)tricyclo[3.3.1.1^3,7]dec-1-yl-] | 58.9% | 73.4% |  |
| O=C(NC12CC3CC(CC(C3)C1)C2)C12CC3CC(CC(C3)C1)C2 [Compound C8, Methanone, (Tricyclo[3.3.1.1^3,7]decanyl)-N-tricyclo[3.3.1.1^3,7]dec-1-yl-] | 19.1% | 58.8% |  |
| O=C(N1CCC2CCCCC2C1)C12CC3CC(CC(C3)C1)C2 (stereo not drawn) [Compound C9, Methanone, (decahydroisoquinolinyl)tricyclo[3.3.1.1^3,7]dec-1-yl-] | 81.2% | 86.8% |  |
| O=C(N1CCCC2CCCCC21)C12CC3CC(CC(C3)C1)C2 (stereo not drawn) [Compound C10, Methanone, (decahydroquinolinyl)tricyclo[3.3.1.1^3,7]dec-1-yl-] | 63.4% | 89.6% |  |
| CC1(C)CCCN(C(=O)C23CC4CC(CC(C4)C2)C3)C1 [Compound C11, Methanone, (3,3-dimethyl-1-piperidinyl)tricyclo[3.3.1.1^3,7]dec-1-yl] | 39.3% | 76.6% |  |
| CC1CCCCN1C(=O)C12CC3CC(CC(C3)C1)C2 (stereo not drawn) [Compound C12, Methanone, (2-methyl-1-piperidinyl)tricyclo[3.3.1.1^3,7]dec-1-yl-] |  |  | inhibition at 10 µM (human sebocytes): 24.5%; inhibition at 100 µM (human sebocytes): 51% |
| CC1CCN(C(=O)C23CC4CC(CC(C4)C2)C3)CC1 [Compound C13, Methanone, (4-methyl-1-piperidinyl)tricyclo[3.3.1.1^3,7]dec-1-yl] | 63.5% | 90.4% |  |
| CC1CCCN(C(=O)C23CC4CC(CC(C4)C2)C3)C1 (stereo not drawn) [Compound C14, Methanone, (3-methyl-1-piperidinyl)tricyclo[3.3.1.1^3,7]dec-1-yl] |  |  | inhibition at 10 µM (human sebocytes): 52.8%; inhibition at 100 µM (human sebocytes): 76% |
| CC1CC(C)CN(C(=O)C23CC4CC(CC(C4)C2)C3)C1 (stereo not drawn) [Compound C15, Methanone, (3,5-dimethyl-1-piperidinyl)tricyclo[3.3.1.1^3,7]dec-1-yl-] | 40.1% | 71% |  |
| CCC1(C)CCN(C(=O)C23CC4CC(CC(C4)C2)C3)CC1 [Compound C16, Methanone, (4-methyl-4-ethy-piperidinyl)tricyclo[3.3.1.1^3,7]dec-1-yl-] | 49.8% | 80.7% |  |
| CCC1(CC)CCN(C(=O)C23CC4CC(CC(C4)C2)C3)C1 [Compound C17, Methanone, (3,3-diethyl-pyrrolidinyl)tricyclo[3.3.1.1^3,7]dec-1-yl-] | 32.2% | 65.2% |  |
| CC(C)N(C(=O)C12CC3CC(CC(C3)C1)C2)C(C)C [Compound C18, Methanone, (N,N-diisopropyl)tricyclo[3.3.1.1^3,7]dec-1-yl-] |  |  | inhibition at 10 µM (human sebocytes): 42%; inhibition at 100 µM (human sebocytes): 52.5% |
| CC(C)(C)CCNC(=O)C12CC3CC(CC(C3)C1)C2 [Compound C19, Methanone, (3,3-dimethylbutylaminyl)tricyclo[3.3.1.1^3,7]dec-1-yl-] | 35.9% |  |  |
| CC(C)(C)CNC(=O)C12CC3CC(CC(C3)C1)C2 [Compound C20, Methanone, (2,2-dimethylpropylaminyl)tricyclo[3.3.1.1^3,7]dec-1-yl-] | 49.5% | 82.8% |  |
| CC(C)(C)CC(C)(C)NC(=O)C12CC3CC(CC(C3)C1)C2 [Compound C21, Methanone, (1,1-dimethyl-3,3-dimethylbutylaminyl)tricyclo[3.3.1.1^3,7]dec-1-yl-] | 26.4% | 43.5% |  |
| CC(C)CC(C)NC(=O)C12CC3CC(CC(C3)C1)C2 (stereo not drawn) [Compound C22, Methanone, (1,3-dimethyl-butylaminyl)tricyclo[3.3.1.1^3,7]dec-1-yl-] |  |  | inhibition at 10 µM (human sebocytes): 29.1%; inhibition at 100 µM (human sebocytes): 45.3% |
| O=S1(=O)OC(c2ccc(O)cc2)(c2ccc(O)cc2)c2ccccc21 [Phenol Red, reference compound] | 17.1% | 65.1% |  |
| CCCCCCCCCCCCCCCCCC(N)=O [octadecanamide] |  |  | SPF protection improvement (in words) [1]: did not achieve these improvements; UV-A and UV-B protection improvement (in words) [2]: did not achieve these improvements |
